Source: patent US6437128B1, “Cribrostatins 3-5” (Arizona Board of Regents, priority 2001, dated 2002)
Converted amounts (≈) assume the structure as drawn. Like-named read-outs stand apart in the source and are kept apart here.

Legend:
[1] = system: Bacillus subtilis (Presque Isle 620); test: Antimicrobial disk diffusion; assay type: cell-based
DU-145 (Prostate) = test: ASU-CRI minipanel of human cancer cell lines; assay type: cell-based; details: Prostate DU-145
From the text: (§1) Individual cell line response values are provided in the Experimental.

OVCAR-3 (Ovarian) = test: ASU-CRI minipanel of human cancer cell lines; assay type: cell-based; details: Ovarian OVCAR-3
From the text: as §1

NCI-H460 (Lung-NSC) = test: ASU-CRI minipanel of human cancer cell lines; assay type: cell-based
From the text: as §1

BXPC-3 (Pancreas-a) = test: ASU-CRI minipanel of human cancer cell lines; assay type: cell-based; details: Pancreas-a BXPC-3
From the text: as §1

KM20L2 (Colon) = test: ASU-CRI minipanel of human cancer cell lines; assay type: cell-based
From the text: as §1

SF-295 (CNS) = test: ASU-CRI minipanel of human cancer cell lines; assay type: cell-based; details: CNS SF-295
From the text: as §1

[2] = system: Micrococcus luteus (Presque Isle 456); test: Antimicrobial disk diffusion; assay type: cell-based
[3] = system: P388 lymphocytic leukemia; test: in vitro murine P388 lymphocytic leukemia (PS) cell growth inhibition; assay type: cell-based; details: for GI50: Mouse Leukemia P388; for PS ED50 (P388 ED50): in vitro P388 lymphocytic leukemia
From the text: The fractions obtained from the 1988-89 recollection of Cribrochalina so. (See: Pettit, G. R.; Collins, J. C.; Herald, D. L.; Doubek, D. L.; Boyd, M. R.; Schmidt, J. M.; Hooper, J. N. A.; Tackett, L. P. Can. J. Cheim. 1992, 70, 1170-1175) beginning with the 195 g dichloromethane partition fraction were re-examined guided by bioassay results using the murine P388 lymphocytic leukemia.
as §1

[4] = system: Streptococcus pneumoniae (ATCC 6303); test: Antimicrobial disk diffusion; assay type: cell-based
IGROV1 = test: NCI 60-cell screen; assay type: cell-based, human; details: averaged, quadruplicate, upper limit 10^−5 M
KM 12 = test: NCI 60-cell screen; assay type: cell-based, human; details: averaged, quadruplicate, upper limit 10^−5 M
SN12C = test: NCI 60-cell screen; assay type: cell-based, human; details: averaged, quadruplicate, upper limit 10^−5 M
MDA-N = test: NCI 60-cell screen; assay type: cell-based, human; details: averaged, quadruplicate, upper limit 10^−5 M
NCI-H226 = test: NCI 60-cell screen; assay type: cell-based, human; details: averaged, quadruplicate, upper limit 10^−5 M
[5] = system: Stenotrophomonas maltophilia (ATCC 13637); test: Antimicrobial disk diffusion; assay type: cell-based
COLO 205 = test: NCI 60-cell screen; assay type: cell-based, human; details: averaged, quadruplicate, upper limit 10^−5 M
[6] = system: Candida albicans (ATCC 90028); test: Antimicrobial disk diffusion; assay type: cell-based
SNB-75 = test: NCI 60-cell screen; assay type: cell-based, human; details: averaged, quadruplicate, upper limit 10^−5 M
MCF7/ADR-RES = test: NCI 60-cell screen; assay type: cell-based, human; details: averaged, quadruplicate, upper limit 10^−5 M
[7] = system: Penicillin-resistant N. gonorrhoeae (clinical isolate); test: Antimicrobial disk diffusion; assay type: cell-based
[8] = system: Escherichia coli (ATCC 25922); test: Antimicrobial disk diffusion; assay type: cell-based
OVCAR-3 = test: NCI 60-cell screen; assay type: cell-based, human; details: averaged, quadruplicate, upper limit 10^−5 M
[9] = system: Enterococcus faecalis (ATCC 29212); test: Antimicrobial disk diffusion; assay type: cell-based
SW-620 = test: NCI 60-cell screen; assay type: cell-based, human; details: averaged, quadruplicate, upper limit 10^−5 M
OVCAR-8 = test: NCI 60-cell screen; assay type: cell-based, human; details: averaged, quadruplicate, upper limit 10^−5 M
[10] = system: Cryptococcus neoformans (ATCC 90112); test: Antimicrobial disk diffusion; assay type: cell-based
K-562 = test: NCI 60-cell screen; assay type: cell-based, human; details: averaged, quadruplicate, upper limit 10^−5 M
SR = test: NCI 60-cell screen; assay type: cell-based, human; details: averaged, quadruplicate, upper limit 10^−5 M
SK-MEL-5 = test: NCI 60-cell screen; assay type: cell-based, human; details: averaged, quadruplicate, upper limit 10^−5 M
RXF-393 = test: NCI 60-cell screen; assay type: cell-based, human; details: averaged, quadruplicate, upper limit 10^−5 M
HL-60 (TB) = test: NCI 60-cell screen; assay type: cell-based, human; details: averaged, quadruplicate, upper limit 10^−5 M
NCI-H522 = test: NCI 60-cell screen; assay type: cell-based, human; details: averaged, quadruplicate, upper limit 10^−5 M
786-O = test: NCI 60-cell screen; assay type: cell-based, human; details: averaged, quadruplicate, upper limit 10^−5 M
MDA-MB-435 = test: NCI 60-cell screen; assay type: cell-based, human; details: averaged, quadruplicate, upper limit 10^−5 M
SF-539 = test: NCI 60-cell screen; assay type: cell-based, human; details: averaged, quadruplicate, upper limit 10^−5 M
MDA-MB-231/ATCC = test: NCI 60-cell screen; assay type: cell-based, human; details: averaged, quadruplicate, upper limit 10^−5 M
[11] = system: NCI 60-cell in vitro panel; test: NCI 60-cell in vitro panel, mean panel; assay type: cell-based, human; details: average ±SEM from the 40 cell lines that yielded GI50 values for both 4a and 5
From the text: as §1

RPMI-8226 = test: NCI 60-cell screen; assay type: cell-based, human; details: averaged, quadruplicate, upper limit 10^−5 M
CCRF-CEM = test: NCI 60-cell screen; assay type: cell-based, human; details: averaged, quadruplicate, upper limit 10^−5 M
UACC-62 = test: NCI 60-cell screen; assay type: cell-based, human; details: averaged, quadruplicate, upper limit 10^−5 M
OVCAR4 = test: NCI 60-cell screen; assay type: cell-based, human; details: averaged, quadruplicate, upper limit 10^−5 M
HOP-62 = test: NCI 60-cell screen; assay type: cell-based, human; details: averaged, quadruplicate, upper limit 10^−5 M
HS578T = test: NCI 60-cell screen; assay type: cell-based, human; details: averaged, quadruplicate, upper limit 10^−5 M
[12] = system: Staphylococcus aureus (ATCC 29213); test: Antimicrobial disk diffusion; assay type: cell-based
MCF7 = test: NCI 60-cell screen; assay type: cell-based, human; details: averaged, quadruplicate, upper limit 10^−5 M
LOX IMVI = test: NCI 60-cell screen; assay type: cell-based, human; details: averaged, quadruplicate, upper limit 10^−5 M
MOLT-4 = test: NCI 60-cell screen; assay type: cell-based, human; details: averaged, quadruplicate, upper limit 10^−5 M
ACHN = test: NCI 60-cell screen; assay type: cell-based, human; details: averaged, quadruplicate, upper limit 10^−5 M
MALME-3M = test: NCI 60-cell screen; assay type: cell-based, human; details: averaged, quadruplicate, upper limit 10^−5 M
U251 = test: NCI 60-cell screen; assay type: cell-based, human; details: averaged, quadruplicate, upper limit 10^−5 M
HOP-92 = test: NCI 60-cell screen; assay type: cell-based, human; details: averaged, quadruplicate, upper limit 10^−5 M
SF-295 = test: NCI 60-cell screen; assay type: cell-based, human; details: averaged, quadruplicate, upper limit 10^−5 M
A549/ATCC = test: NCI 60-cell screen; assay type: cell-based, human; details: averaged, quadruplicate, upper limit 10^−5 M
SF-268 = test: NCI 60-cell screen; assay type: cell-based, human; details: averaged, quadruplicate, upper limit 10^−5 M
T-47D = test: NCI 60-cell screen; assay type: cell-based, human; details: averaged, quadruplicate, upper limit 10^−5 M
[13] = system: Neisseria gonorrhoeae (ATCC 49226); test: Antimicrobial disk diffusion; assay type: cell-based
[14] = system: Enterobacter cloacae (ATCC 13047); test: Antimicrobial disk diffusion; assay type: cell-based
PC-3 = test: NCI 60-cell screen; assay type: cell-based, human; details: averaged, quadruplicate, upper limit 10^−5 M
NCI-H460 = test: NCI 60-cell screen; assay type: cell-based, human; details: averaged, quadruplicate, upper limit 10^−5 M

## C/C=C(/C)C(=O)OC[C@H]1C2=C(C=C3[C@H]4c5c(O)c(OC)c(C)c(O)c5C(=O)[C@@H](C(=O)N31)N4C)C(=O)C(C)=C(OC)C2=O [Cribrostatin 5, cribrostatin 5]
[1]
  Minimum inhibitory concentration: * (No inhibition at 100 μg/disk)
DU-145 (Prostate)
  GI50: 0.30 µg/mL (≈ 0.519 µM)
OVCAR-3 (Ovarian)
  GI50: 0.18 µg/mL (≈ 0.311 µM)
NCI-H460 (Lung-NSC)
  GI50: 0.22 µg/mL (≈ 0.38 µM)
BXPC-3 (Pancreas-a)
  GI50: 0.29 µg/mL (≈ 0.501 µM)
KM20L2 (Colon)
  GI50: 0.14 µg/mL (≈ 0.242 µM)
SF-295 (CNS)
  GI50: 0.36 µg/mL (≈ 0.622 µM)
[2]; listed as 4b
  Minimum inhibitory concentration: 50-100 μg/disk
[3]
  GI50: 0.045 µg/mL (≈ 0.0778 µM)
[3]; listed as cribrostatin 5
  PS ED50 (P388 ED50): 0.045 µg/mL
[4]; listed as 4b
  Minimum inhibitory concentration: * (No inhibition at 100 μg/disk)

## cribrostatin 3
IGROV1
  negative log10 GI50: 5.14
KM 12
  negative log10 GI50: 5.31
[1]
  Minimum inhibitory concentration: * (No inhibition at 100 μg/disk)
SN12C
  negative log10 GI50: 5.21
MDA-N
  negative log10 GI50: 5.72
NCI-H226
  negative log10 GI50: 5.15
[5]
  Minimum inhibitory concentration: * (No inhibition at 100 μg/disk)
COLO 205
  negative log10 GI50: 5.23
[6]
  Minimum inhibitory concentration: * (No inhibition at 100 μg/disk)
SNB-75
  negative log10 GI50: 5.32
MCF7/ADR-RES
  negative log10 GI50: 5.34
[7]
  Minimum inhibitory concentration: 0.39-0.78 μg/disk
[8]
  Minimum inhibitory concentration: * (No inhibition at 100 μg/disk)
OVCAR-3
  negative log10 GI50: 5.74
[9]
  Minimum inhibitory concentration: * (No inhibition at 100 μg/disk)
SW-620
  negative log10 GI50: 5.44
OVCAR-8
  negative log10 GI50: 5.06
[10]
  Minimum inhibitory concentration: * (No inhibition at 100 μg/disk)
K-562
  negative log10 GI50: 5.13
SR
  negative log10 GI50: 5.47
SK-MEL-5
  negative log10 GI50: 5.96
RXF-393
  negative log10 GI50: 5.31
HL-60 (TB)
  negative log10 GI50: 5.51
NCI-H522
  negative log10 GI50: 5.41
786-O
  negative log10 GI50: 5.23
MDA-MB-435
  negative log10 GI50: 5.74
SF-539
  negative log10 GI50: 5.32
MDA-MB-231/ATCC
  negative log10 GI50: 5.06
[11]
  GI50: 4.27 µM
RPMI-8226
  negative log10 GI50: 5.07
CCRF-CEM
  negative log10 GI50: 5.37
UACC-62
  negative log10 GI50: 5.60
OVCAR4
  negative log10 GI50: 5.28
HOP-62
  negative log10 GI50: 5.27
HS578T
  negative log10 GI50: 5.20
[12]
  Minimum inhibitory concentration: * (No inhibition at 100 μg/disk)
DU-145 (Prostate)
  GI50: >1 µg/mL
OVCAR-3 (Ovarian)
  GI50: 0.77 µg/mL
NCI-H460 (Lung-NSC)
  GI50: >1 µg/mL
BXPC-3 (Pancreas-a)
  GI50: >1 µg/mL
KM20L2 (Colon)
  GI50: >1 µg/mL
SF-295 (CNS)
  GI50: >1 µg/mL
MCF7
  negative log10 GI50: 5.33
LOX IMVI
  negative log10 GI50: 5.39
MOLT-4
  negative log10 GI50: 5.31
[2]
  Minimum inhibitory concentration: * (No inhibition at 100 μg/disk)
ACHN
  negative log10 GI50: 5.02
MALME-3M
  negative log10 GI50: 6.21
U251
  negative log10 GI50: 5.49
HOP-92
  negative log10 GI50: 5.02
SF-295
  negative log10 GI50: 5.44
A549/ATCC
  negative log10 GI50: 5.46
[3]
  GI50: 2.49 µg/mL
  PS ED50 (P388 ED50): 2.5 µg/mL
SF-268
  negative log10 GI50: 5.20
T-47D
  negative log10 GI50: 5.19
[13]
  Minimum inhibitory concentration: 0.0975-0.195 μg/disk
[4]
  Minimum inhibitory concentration: * (No inhibition at 100 μg/disk)
[14]
  Minimum inhibitory concentration: * (No inhibition at 100 μg/disk)
PC-3
  negative log10 GI50: 5.70
NCI-H460
  negative log10 GI50: 5.52
